Our source for the chromatographic logP and logP values is patent US20090030024A1, “THIAZOLES AS FUNGICIDES” (priority 2005, published 2009).

The nature of this data set: logP determination by retention times (calibration with alkan-2-ones). Conditions: for logP: HPLC, reversed-phase C 18, EEC Directive 79/831 Annex V.A8, method *: 40° C., 0.1% aqueous formic acid and acetonitrile, linear gradient 10% to 95% acetonitrile.

Read-outs that look alike come from different tables or passages of the source. Marks after values point to notes of the source that are not given here.

For `Cc1nc(C)c(-c2nc(Cl)ncc2Cl)s1` [2,5-Dichloro-4-(2,4-dimethyl-1,3-thiazol-5-yl)pyrimidine], the chromatographic logP (logP(HCOOH), HCOOH) came to 2.47.
As to `Cc1nc2c(s1)C(=O)CCC2` [2-Methyl-7-oxo-4,5,6,7-tetrahydrobenzothiazole], the chromatographic logP (logP(HCOOH), HCOOH) is 1.08.
`CC(=O)c1cccc(Nc2nccc(-c3sc(C)nc3C)n2)c1` [Example 2, 1-(3-{[4-(2,4-dimethyl-1,3-thiazol-5-yl)pyrimidin-2-yl]amino}phenyl)ethanone] showed a chromatographic logP of 2.14.
Same read-out and setting: the same measure for `CC(=O)c1cccc(Nc2nccc(-c3sc(N)nc3C)n2)c1` [Example 4, 1-(3-{[4-(2-amino-4-methyl-1,3-thiazol-5-yl)pyrimidin-2-yl]amino}phenyl)ethanone]: 1.47.
For `CC(=O)c1cccc(Nc2nccc(-c3sc(C4CCCCC4)nc3C)n2)c1` [Example 6, 1-(3-{[4-(2-cyclohexyl-4-methyl-1,3-thiazol-5-yl)pyrimidin-2-yl]amino}phenyl)ethanone], the chromatographic logP was 4.11.
`CC(=O)c1cccc(Nc2nccc(-c3sc(C(C)C)nc3C)n2)c1` [Example 10, 1-(3-{[4-(2-isopropyl-4-methyl-1,3-thiazol-5-yl)pyrimidin-2-yl]amino}phenyl)ethanone]: the chromatographic logP is 3.1.
`CC(=O)c1cccc(Nc2nccc(-c3cnc(C)s3)n2)c1` [Example 11, 1-(3-{[4-(2-methyl-1,3-thiazol-5-yl)pyrimidin-2-yl]amino}phenyl)ethanone] had a chromatographic logP of 2.57.
Turning to `CC(=O)c1cccc(Nc2nccc(-c3sc(N(C)C)nc3C(F)(F)F)n2)c1` [Example 23, 1-[3-({4-[2-(dimethylamine)-4-(trifluoromethyl)-1,3-thiazol-5-yl]pyrimidin-2-yl}amino)phenyl]ethanone], the logP was 1.91*.
As to `COCc1nc(C)c(-c2ccnc(Nc3cccc(C(C)=O)c3)n2)s1` [Example 24, 1-[3-({4-[2-(methoxymethyl)-4-methyl-1,3-thiazol-5-yl]pyrimidin-2-yl}amino)phenyl]ethanone], the chromatographic logP was 2.38.
For the compound `CC(=O)c1cccc(Nc2nccc(-c3sc(C)nc3C(F)(F)F)n2)c1` [Example 26, 1-[3-({4-[2-methyl-4-(trifluoromethyl)-1,3-thiazol-5-yl]pyrimidin-2-yl}amino)phenyl]ethanone], the chromatographic logP was determined as 3.02.
Take `CNc1nc(C)c(-c2ccnc(Nc3cccc(C(C)=O)c3)n2)s1` [Example 27, 1-[3-({4-[4-methyl-2-(methylamine)-1,3-thiazol-5-yl]pyrimidin-2-yl}amino)phenyl]ethanone]: the logP is on record as 1.62*.
`CSc1nc(C)c(-c2ccnc(Nc3cccc(C(C)=O)c3)n2)s1` [Example 28, 1-[3-({4-[4-methyl-2-(methylthio)-1,3-thiazol-5-yl]pyrimidin-2-yl}amino)phenyl]ethanone] displayed a chromatographic logP of 2.99.
On to `CC(=O)c1cccc(Nc2nccc(-c3sc(NCC4CCCO4)nc3C)n2)c1` (centres unmarked) [Example 39, 1-{3-[(4-{4-methyl-2-[(tetrahydrofuran-2-ylmethyl)amino]-1,3-thiazol-5-yl}pyrimidin-2-yl)amino]phenyl}ethanone], for which the chromatographic logP turned out to be 1.82.
For `CSc1nc(C)c(-c2ccnc(Nc3ccc(N(C)C)c(Cl)c3)n2)s1` [Example 61, 2-chloro-N1,N1-dimethyl-N4-{4-[4-methyl-2-(methylthio)-1,3-thiazol-5-yl]pyrimidin-2-yl}benzene-1,4-diamine], the chromatographic logP worked out at 2.74.
`Cc1nc(C2CC2)sc1-c1ccnc(Nc2ccc(N(C)C)c(Cl)c2)n1` [Example 63, 2-chloro-N4-[4-(2-cyclopropyl-4-methyl-1,3-thiazol-5-yl)pyrimidin-2-yl]-N1,N1-dimethylbenzene-1,4-diamine]: the chromatographic logP was 2.59.
For the compound `Cc1nc(C(C)C)sc1-c1ccnc(Nc2ccc(N(C)C)c(Cl)c2)n1` [Example 64, 2-chloro-N4-[4-(2-isopropyl-4-methyl-1,3-thiazol-5-yl)pyrimidin-2-yl]-N1,N1-dimethylbenzene-1,4-diamine], the chromatographic logP was found to be 2.72.
Same read-out and setting: the same measure for `COCc1nc(C)c(-c2ccnc(Nc3ccc(N(C)C)c(Cl)c3)n2)s1` [Example 65, 2-chloro-N4-{4-[2-(methoxymethyl)-4-methyl-1,3-thiazol-5-yl]pyrimidin-2-yl}-N1,N1-dimethylbenzene-1,4-diamine]: 2.04.
The compound `COCCOC(=O)Nc1ccc(Nc2nccc(-c3sc(C4CC4)nc3C)n2)cc1` [Example 71, 2-methoxyethyl-(4-{[4-(2-cyclopropyl-4-methyl-1,3-thiazol-5-yl)pyrimidin-2-yl]amino}phenyl)carbamate] gave a chromatographic logP of 2.51.
In turn, `COCCOC(=O)Nc1ccc(Nc2nccc(-c3sc(C(C)C)nc3C)n2)cc1` [Example 74, 2-methoxyethyl-(4-{[4-(2-isopropyl-4-methyl-1,3-thiazol-5-yl)pyrimidin-2-yl]amino}phenyl)carbamate] yielded a chromatographic logP of 2.67. The chromatographic logP values of the last two compounds are within 0.2 log units of each other.
`Cc1nc2c(s1)-c1nc(Nc3cccc([N+](=O)[O-])c3)ncc1CC2` [Example 95, 2-Methyl-N-(3-nitrophenyl)-4,5-dihydro[1,3]thiazolo[4,5-h]quinazoline-8-amine]: the chromatographic logP came out at 2.79. The chromatographic logP (logP(HCOOH), HCOOH) worked out at 2.79.
As for `COCc1nc(C)c(-c2ccnc(Nc3cccc(O)c3)n2)s1` [Example 101, 3-({4-[2-(methoxymethyl)-4-methyl-1,3-thiazol-5-yl]pyrimidin-2-yl}amino)phenol], the chromatographic logP was 1.97.
As to `Cc1nc(NC(C)(C)C)sc1-c1ccnc(Nc2cccc(O)c2)n1` [Example 102, 3-({4-[2-(tert-butylamine)-4-methyl-1,3-thiazol-5-yl]pyrimidin-2-yl}amino)phenol], the logP is 1.82*.
As for `Cc1nc(C(F)(F)F)c(-c2ccnc(Nc3cccc(O)c3)n2)s1` [Example 103, 3-({4-[2-methyl-4-(trifluoromethyl)-1,3-thiazol-5-yl]pyrimidin-2-yl}amino)phenol], the chromatographic logP was 2.52.
Regarding `Cc1nc2c(s1)-c1nc(Nc3cccc(O)c3)ncc1CC2` [Example 126, 3-[(2-methyl-4,5-dihydro[1,3]thiazole[4,5-h]quinazolin-8-yl)amino]phenol], the logP was 1.77*.
Regarding `COCC(C)Nc1nc(C)c(-c2ccnc(Nc3cccc(O)c3)n2)s1` (centres unmarked) [Example 129, 3-[(4-{2-[(2-methoxy-1-methylethyl)amino]-4-methyl-1,3-thiazol-5-yl}pyrimidin-2-yl)amino]phenol], the chromatographic logP amounted to 1.53.
With `Cc1nc(C)c(-c2ccnc(Nc3cccc(O)c3)n2)s1` [Example 141, 3-{[4-(2,4-dimethyl-1,3-thiazol-5-yl)pyrimidin-2-yl]amino}phenol], the chromatographic logP stood at 1.84.
In the case of `Cc1nc(C2CCCCC2)sc1-c1ccnc(Nc2cccc(C(=O)O)c2)n1` [Example 145, 3-{[4-(2-cyclohexyl-4-methyl-1,3-thiazol-5-yl)pyrimidin-2-yl]amino}benzoic acid], the chromatographic logP was 3.27.
`Cc1nc(C2CCCCC2)sc1-c1ccnc(Nc2cccc(O)c2)n1` [Example 146, 3-{[4-(2-cyclohexyl-4-methyl-1,3-thiazol-5-yl)pyrimidin-2-yl]amino}phenol] gave a chromatographic logP of 3.33.
For the compound `Cc1nc(C2CC2)sc1-c1ccnc(Nc2cccc(C(=O)O)c2)n1` [Example 147, 3-{[4-(2-cyclopropyl-4-methyl-1,3-thiazol-5-yl)pyrimidin-2-yl]amino}benzoic acid], the chromatographic logP turned out to be 2.27.
Take `Cc1nc(C2CC2)sc1-c1ccnc(Nc2cccc(O)c2)n1` [Example 148, 3-{[4-(2-cyclopropyl-4-methyl-1,3-thiazol-5-yl)pyrimidin-2-yl]amino}phenol]: the chromatographic logP was found to be 2.24.
Turning to `CCc1nc(C)c(-c2ccnc(Nc3cccc(O)c3)n2)s1` [Example 150, 3-{[4-(2-ethyl-4-methyl-1,3-thiazol-5-yl)pyrimidin-2-yl]amino}phenol], the chromatographic logP is 2.12.
With `COCc1nc(C)c(-c2ccnc(Nc3ccc(C#N)cc3)n2)s1` [Example 179, 4-({4-[2-(methoxymethyl)-4-methyl-1,3-thiazol-5-yl]pyrimidin-2-yl}amino)benzonitrile], the chromatographic logP amounted to 2.57.
For the compound `Cc1nc(NC(C)(C)C)sc1-c1ccnc(Nc2ccc(O)cc2)n1` [Example 180, 4-({4-[2-(tert-butylamine)-4-methyl-1,3-thiazol-5-yl]pyrimidin-2-yl}amino)phenol], the logP was 1.67*.
On to `COc1cccc(Nc2nccc(-c3sc(C)nc3C)n2)c1` [Example 183, 4-(2,4-dimethyl-1,3-thiazol-5-yl)-N-(3-methoxyphenyl)pyrimidine-2-amine], for which the chromatographic logP was 2.64.
On to `Cc1nc(C)c(-c2ccnc(Nc3cccc([N+](=O)[O-])c3)n2)s1` [Example 184, 4-(2,4-dimethyl-1,3-thiazol-5-yl)-N-(3-nitrophenyl)pyrimidine-2-amine], for which the chromatographic logP was determined as 2.61. The chromatographic logP values of the last two compounds are within 0.2 log units of each other.
For the compound `Cc1nc(C)c(-c2ccnc(Nc3ccc(F)c(C)c3)n2)s1` [Example 185, 4-(2,4-dimethyl-1,3-thiazol-5-yl)-N-(4-fluoro-3-methylphenyl)pyrimidine-2-amine], the chromatographic logP is 3.07.
`COc1ccc(Nc2nccc(-c3sc(C)nc3C)n2)cn1` [Example 187, 4-(2,4-dimethyl-1,3-thiazol-5-yl)-N-(6-methoxypyridin-3-yl)pyrimidine-2-amine]: the chromatographic logP came out at 2.09.
Still for that read-out and setting: the same measure for `Cc1nc(C)c(-c2ccnc(Nc3cccc(C(F)(F)F)c3)n2)s1` [Example 188, 4-(2,4-dimethyl-1,3-thiazol-5-yl)-N-[3-(trifluoromethyl)phenyl]pyrimidine-2-amine]: 3.3; for `Cc1nc(C)c(-c2ccnc(Nc3ccc(C(F)(F)F)cc3)n2)s1` [Example 189, 4-(2,4-dimethyl-1,3-thiazol-5-yl)-N-[4-(trifluoromethyl)phenyl]pyrimidine-2-amine]: 3.56.
The same measure, in the same setting: the same measure for `COc1ccc(Nc2nccc(-c3sc(N)nc3C)n2)cc1OC` [Example 202, 4-(2-amino-4-methyl-1,3-thiazol-5-yl)-N-(3,4-dimethoxyphenyl)pyrimidine-2-amine]: 1.28.
